This note sets out measurements from patent US12577530B2, “Generation of a population of hindbrain cells and hindbrain-like organoids from pluripotent stem cells” (The Regents of the University of California, priority 2018, dated 2026).

The structures appear in SMILES notation.

One assay relates to WTB and WTC hPSCs. The assay is described as follows: WNT activation (CHIR 99021) during V2a interneuron differentiation, flow cytometry of CHX10. The format is cell-based, human. To be noted: 2 μM CHIR99021 pretreatment two days and first 7 days of protocol, compared to untreated (UT) controls. As to the method: To examine pretreatment effects of WNT, hiPSCs were plated onto a Matrigel-coated 24-well plate at 125,000 cells/cm^2 in mTeSR supplemented with 10 μM ROCK inhibitor and 2 μM CHIR99021. Two days later, the cell layers were dissociated with Accutase and the differentiation was performed as described above with the addition of 2 μM CHIR99021. The CHIR99021 treatment was continued until day 7.
(A flow cytometer gives signals particle by particle.)

The test system of another assay is hPSCs. In words: Monolayer hindbrain differentiation with varied pur or RA concentration, flow cytometry of CHX10 and LHX5. The format is cell-based, human. As to the method: hPSCs were seeded in mTeSR supplemented with 10 μM ROCK inhibitor and dual SMAD inhibitors 0.2 μM LDN193189 and 10 μM SB431542 (StemGent, Cambridge, MA) at 5,000-100,000 cells/cm^2 onto 24-well plates coated with Matrigel. On day 3, medium was changed to m TeSR supplemented with dual SMAD inhibitors only. On day 5, the base medium was switched to neural induction medium (DMEM F: 12 (Corning, Corning, NY), N2 supplement (Life Technologies, Carlsbad, CA), L-Glutamine (VWR), 2 μg/ml heparin (Sigma Aldrich, St. Louis, MO), non-essential amino acids (Mediatech INC, Manassas, VA), penicillin-streptomycin (VWR) supplemented with fresh 0.4 ug/ml ascorbic acid (Sigma Aldrich) and 10 ng/ml brain derived neurotrophin factor (BDNF, R&D Systems, Minneapolis, MN)) supplemented with dual SMAD inhibitors and 10 nM-10 μM retinoic acid (Sigma Aldrich). On day 7, dual SMAD inhibition was ceased and 10 nM-10 μM retinoic acid, 10 nM-10 μM pur (EMD Millipore, Darmstast, Germany) and 1 μM N—[N-(3,5-difluorophenacetyl)-L-alanyl]-S-phenylglycine t-butyl ester (DAPT) were added to the neural induction medium. Medium was changed every 2-3 days throughout the differentiation, with fresh supplements added each time for up to 17 days.
At day 17 of differentiation, cells were completely dissociated as described in 3.3.3 and stained with the Transcription Factor Buffer Set, which includes a fixation/permeabilization (FP) and wash/permeabilization (WP) buffer (BD Biosciences, Franklin Lakes, NJ). Dissociated samples were first fixed for 45 minutes at 4° C. in the FP buffer followed by a 20-minute block with WP buffer containing 5% normal donkey serum (NDS, Jackson Laboratory, Bay Harbor, ME). Primary antibodies against CHX10, LHX5, PHOX2A, and PHOX2B (Table 1) and the proper matching species isotype control were added into WP buffer containing 2% NDS and incubated at 4° C. for 45 minutes. After two washes with WP buffer, secondary antibodies donkey anti-mouse IgG, ALEXA FLUOR™ 488 (a fluorescent compound; Life Technologies), at a dilution of 1:200, were added to WP buffer and incubated at 4° C. for 45 minutes. After two washes with WP buffer, samples were passed through a 35-μm filter before assessing with a BD ACCURI™ C6 (BD) cytometer (minimum 10,000 events). Cytometry analysis was performed using FlowJo V10 (Flowjo, Ashland, OR).

In assay [1] the test system is Human PSCs (organoids). In words: Organoid diameter from phase contrast images. The format is cell-based. As to the method: Human PSCs were seeded at 125 k cells/cm^2 in mTeSR supplemented with 10 μM ROCK inhibitor and 2 μM CHIR99102. For WNT treated cells, CHIR was supplemented into the media at each feed through day 7. 48 hours later, cell layers were dissociated using Accutase and counted. For organoid culture, 800 μm pyramidal PDMS inserts were placed into 24-well plates. 1 ml mTeSR containing 10 μM ROCK inhibitor was added to the wells containing the molds and the plate was centrifuged at 2,000×g for 3 minutes to get rid of any bubbles. Dissociated cells, either hPSCs or WNT pre-treated cells, were then added slowly into the wells at 10,000 cells per organoid in mTeSR supplemented with 10 μM ROCK inhibitor, 0.2 LDN193189, and 10 μM SB431542 ([…], Cambridge, MA). […] To change the media on the cells for the rest of the differentiation, the organoids were pipetted into a conical and allowed to settle. Old media was aspirated off and new media was used to resuspend the organoids and transfer them back to the 6 well. On day 3, medium was changed to mTeSR supplemented with dual SMAD inhibitors only. […] Phase contrast images of the organoids were taken using the EVOS® FL Imaging System. The size analysis performed in FIG. 12 was performed manually using Image J. The size analysis performed in FIG. 13 was done using a Python script to first segment the organoids using a watershed segmentation algorithm. […]

The test system of assay [2] is Human PSCs (organoids). In words: 3D organoid hindbrain differentiation, flow cytometry of CHX10, LHX5, PHOX2A, PHOX2B at day 17. The class given is cell-based. As to the method: Human PSCs were seeded at 125 k cells/cm^2 in mTeSR supplemented with 10 μM ROCK inhibitor and 2 μM CHIR99102. For WNT treated cells, CHIR was supplemented into the media at each feed through day 7. 48 hours later, cell layers were dissociated using Accutase and counted. For organoid culture, 800 μm pyramidal PDMS inserts were placed into 24-well plates. 1 ml mTeSR containing 10 μM ROCK inhibitor was added to the wells containing the molds and the plate was centrifuged at 2,000×g for 3 minutes to get rid of any bubbles. Dissociated cells, either hPSCs or WNT pre-treated cells, were then added slowly into the wells at 10,000 cells per organoid in mTeSR supplemented with 10 μM ROCK inhibitor, 0.2 LDN193189, and 10 μM SB431542 ([…], Cambridge, MA). […] To change the media on the cells for the rest of the differentiation, the organoids were pipetted into a conical and allowed to settle. Old media was aspirated off and new media was used to resuspend the organoids and transfer them back to the 6 well. On day 3, medium was changed to mTeSR supplemented with dual SMAD inhibitors only. […] To dissociate organoid cultures, samples were collected and washed with 1 mL of PBS. The organoids were then transferred to 1 well of a 6-well plate with 2 ml of accutase and incubated on the rotary at 37° C. for 15 minutes. […] The dissociated cells were then transpired to a 15 mL conical and diluted with 3 times the volume of PBS.

A further assay has as its system organoids. The assay is described as follows: Calcium imaging of maturing organoids (Ca^2+ fluctuations). The format is cell-based, human. The note with it: day 33 onward. As to the method: On day 17 of differentiation, organoids were switched to neural maturation medium (BRAINPHYS™ (neurophysiological basal medium) plus SM1 supplement (Stemcell Technologies (Bardy, van den Hurk et al. 2016)) supplemented with 10 ng/ml of BDNF, GDNF, CNTF, and IGF, R&D Systems). Medium was completely changed every 5 days for the remainder of the culture duration.
Endogenous GCaMP6 signal was used to detect calcium flux in differentiations performed with the WTC GCaMP6 cell line. Alternatively, cultures of cells that lacked GCaMP expression were washed with PBS and the medium was replaced with NEUROBASAL™ (neural cell culture medium) plus Fluo4 AM (5 μM, Life Technologies) for 1 hour at 37° C. The cultures were then washed with fresh Neurobasal and allowed to recover for an additional […] at 37° C. before recording on a Zeiss Axio Observer. To assess Ca^2+ fluctuations, cultures were imaged at a rate of 17 frames per second. To analyze the results, ROI were selected by hand using Zen software. For organoids, the outer edge of the tissue was selected and for monolayer cultures, individual neurons were selected. The relative fluorescent units (RFU) measured at the ROIs were processed using Python3. A detrend function with a robust linear regression was performed for normalization and a 4 Hz lowpass Butterworth filter was applied to minimize noise.

[3] abbreviates: pur 100 nM and RA 100 nM, day 17 (FIG. 12F).

`Cc1cnc(-c2cnc(NCCNc3ccc(C#N)cn3)nc2-c2ccc(Cl)cc2Cl)[nH]1` [CHIR 99021, 6-[[2-[[4-(2,4-Dichlorophenyl)-5-(5-methyl-1H-imidazol-2-yl)-2-pyrimidinyl]amino]ethyl]amino]-3-pyridinecarbonitrile]: in the assay with WTB and WTC hPSCs, the CHX10 percentage entry is given as “increased”.
For the molecule `c1ccc2c(Oc3nc(Nc4ccc(N5CCOCC5)cc4)c4ncn(C5CCCCC5)c4n3)cccc2c1` [pur, 9-Cyclohexyl-N-[4-(4-morpholinyl)phenyl]-2-(1-naphthalenyloxy)-9H-purin-6-amine], the LHX5 percentage entry with hPSCs (at 10 and 30 nM pur compared to 100 nM pur, RA kept at 100 nM, p<0.05) is “increased”. The CHX10 percentage entry with hPSCs (at 30 and 100 nM pur, RA kept at 100 nM, p<0.05) is reported as “greater”. Moreover, the organoid diameter with Human PSCs (organoids) [1] (10 nM and 100 nM pur groups, throughout the differentiation) is listed as roughly 500 μm. In addition, in the assay on Human PSCs (organoids) [1] (1 μM pur group, by day 17), the organoid diameter entry was “approximately 700 μm”. Also, in the assay with Human PSCs (organoids) [2] (10 nM pur, day 17 (FIG. 13D)), the “percentages of V2a, V0 and chemosensing subtypes” value is listed as “low percentages of all subtypes”. Also, in the assay on Human PSCs (organoids) [2] (100 nM and 1 μM pur condition versus 10 nM, day 17), the “PHOX2A and PHOX2B percentages” value is reported as “highest”. Moreover, in the assay on Human PSCs (organoids) [2] (100 nM pur, day 17 (FIG. 13D)), the “percentage of CHX10 positive cells” value came to 3.5% and the “percentage of LHX5 positive cells” value was determined as 36.5%. In the assay with Human PSCs (organoids) [2] (1 μM pur, day 17 (FIG. 13D)), the “percentage of CHX10 positive cells” value is 23.3% and the “percentage of LHX5 positive cells” value worked out at 3.1%. Further, in the assay with Human PSCs (organoids) [2] (setting [3]), the “percentage of CHX10^+ cells” value was less than 5%, the “percentage of LHX5^+ cells” value is roughly 80%, the “percentage of PHOX2A^+ cells” value was less than 5% and the “percentage of PHOX2B^+ cells” value is on record as less than 5%. Moreover, the “periodic synchronous Ca^2+ fluctuations” value in the assay on organoids (organoids differentiated with 10 nM pur (V0^lowV2a^low)) is “few periodic synchronous events”. Further, in the assay with organoids (organoids differentiated with 100 nM pur (V0^highV2a^low)), the “periodic synchronous Ca^2+ fluctuations” value is on record as “more rhythmic overall”. For the same molecule, the “periodic synchronous Ca^2+ fluctuations” value with organoids (organoids differentiated with 1 μM pur (V0^lowV2a^high)) is given as “more sporadic”.
With `CC1=C(/C=C/C(C)=C/C=C/C(C)=C/C(=O)O)C(C)(C)CCC1` [RA, retinoic acid], in the assay on hPSCs (pur constant at 100 nM), the “RA concentration at which CHX10 percentage peaked” value is 30 to 100 nM and the “RA concentration at which LHX5 percentage peaked” value turned out to be 10 nM.
